Experimental data taken from US6867207B2, “IL-5 inhibiting 6-azauracil derivatives” (Janssen Pharmaceutica N.V., priority 1997, dated 2005).

Test system: IL-5 production
Test: In vitro inhibition of IL-5 production in human blood (phytohemagglutinin-stimulated whole blood, ELISA);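 also: values marked with an asterisk were tested at 10 µM and unmarked values at 1 µM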
Type: cell-based
Conditions: test dose 1×10^−6 M, 48 hours
Procedure, shortened: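 Percent inhibition of IL-5, quantified by ELISA in cell-free supernatants, is given at a single dose of 1×10^−6 M (or 1×10^−5 M). Threefold-diluted human whole blood from healthy men received compound for 60 min at 37° C before 48 h PHA stimulation at 2 μg/mL.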
In the case of CC(C)c1sc(C(c2ccc(Cl)cc2)c2c(Cl)cc(-n3ncc(=O)[nH]c3=O)cc2Cl)nc1-c1ccccc1 (racemic) [Compound 241, (±)-2-[3,5-dichloro-4-[(4-chlorophenyl)[5-(1-methylethyl)-4-phenyl-2-thiazolyl]methyl]-phenyl-1,2,4-triazin-3,5(2H,4H)-dione], the “% inh. (percentage inhibition of IL-5 production)” value is reported as 95%. In the case of Nc1cc(O)nc(SC(c2ccc(Cl)cc2)c2ccc(-n3ncc(=O)[nH]c3=O)cc2Cl)n1 (stereo not drawn) [Compound 87], the “% inh. (percentage inhibition of IL-5 production)” value is reported as 9%. In the case of NC(c1ccc(Cl)cc1)(c1nc2ccccc2s1)c1ccc(-n2ncc(=O)[nH]c2=O)cc1Cl (stereo not drawn) [Comp 416], the “% inh. (percentage inhibition of IL-5 production)” value is reported as 79%. In the case of O=c1cnn(-c2cc(Cl)c(C(c3ccc(Cl)cc3)c3nc(-c4c(Cl)cccc4Cl)cs3)c(Cl)c2)c(=O)[nH]1 (racemic) [Comp 264], the “% inh. (percentage inhibition of IL-5 production)” value is reported as 79%. For COC1CCN(Cc2sc(C(c3ccc(Cl)cc3)c3c(Cl)cc(-n4ncc(=O)[nH]c4=O)cc3Cl)nc2-c2ccccc2)CC1.Cl.O (racemic) [Comp 314], the “% inh. (percentage inhibition of IL-5 production)” value was 81%. With Cc1sc(C(c2ccc(Cl)cc2)c2c(Cl)cc(-n3ncc(=O)[nH]c3=O)cc2Cl)nc1-c1ccccc1Cl (racemic) [Comp 272] the “% inh. (percentage inhibition of IL-5 production)” value was 87%. In the case of COC(C)c1sc(C(c2ccc(Cl)cc2)c2c(Cl)cc(-n3ncc(=O)[nH]c3=O)cc2Cl)nc1-c1ccccc1 (mixture of isomers) [Comp 315], the “% inh. (percentage inhibition of IL-5 production)” value is reported as 93%. In the case of Nc1ccnc(SC(c2ccc(Cl)cc2)c2c(Cl)cc(-n3ncc(=O)[nH]c3=O)cc2Cl)n1 (racemic) [Compound 348], the “% inh. (percentage inhibition of IL-5 production)” value is reported as 83%. In the case of CCOC(=O)N1CCN(c2ccnc(SC(c3ccc(Cl)cc3)c3c(Cl)cc(-n4ncc(=O)[nH]c4=O)cc3Cl)n2)CC1 (racemic) [Compound 352], the “% inh. (percentage inhibition of IL-5 production)” value is reported as 85%. With Cc1sc(C(c2ccc(Cl)cc2)c2c(Br)cc(-n3ncc(=O)[nH]c3=O)cc2Br)nc1-c1ccccc1 (racemic) [Comp 330] the “% inh. (percentage inhibition of IL-5 production)” value was 94%. In the case of O=c1cnn(-c2cc(Cl)c(C(Sc3nccc(N4CCOCC4)n3)c3ccc(Cl)cc3)c(Cl)c2)c(=O)[nH]1 (racemic) [Compound 349], the “% inh. (percentage inhibition of IL-5 production)” value is reported as 87%. In the case of O=c1cnn(-c2ccc(C(SCc3ccco3)c3ccc(Cl)cc3)c(Cl)c2)c(=O)[nH]1 (racemic) [Compound 64], the “% inh. (percentage inhibition of IL-5 production)” value is reported as 64%. For O=C(Cc1sc(C(c2ccc(Cl)cc2)c2c(Cl)cc(-n3ncc(=O)[nH]c3=O)cc2Cl)nc1-c1ccccc1)N1CCOCC1 (racemic) [Comp 276], the “% inh. (percentage inhibition of IL-5 production)” value was 91%. For CN(C)CCNC(c1ccc(Cl)cc1)(c1nc(-c2ccccc2)c(Cl)s1)c1ccc(-n2ncc(=O)[nH]c2=O)cc1Cl (racemic) [Comp 266], the “% inh. (percentage inhibition of IL-5 production)” value was 46%. With O=c1cnn(-c2cc(Cl)c(C(c3ccc(Cl)cc3)c3nc(-c4cccc(Br)c4)cs3)c(Cl)c2)c(=O)[nH]1 (racemic) [Comp 250] the “% inh. (percentage inhibition of IL-5 production)” value was 84%. In the case of O=c1cnn(-c2cc(Cl)c(C(c3ccc(Cl)cc3)c3nc(-c4cccc(Cl)c4)cs3)c(Cl)c2)c(=O)[nH]1 (racemic) [Comp 19], the “% inh. (percentage inhibition of IL-5 production)” value is reported as 83%. In the case of COc1ccccc1-c1csc(C(c2ccc(Cl)cc2)c2c(Cl)cc(-n3ncc(=O)[nH]c3=O)cc2Cl)n1 (racemic) [Comp 263], the “% inh. (percentage inhibition of IL-5 production)” value is reported as 92%. With O=c1cnn(-c2cc(Cl)c(C(c3ccc(Cl)cc3)c3nc(-c4ccccc4F)cs3)c(Cl)c2)c(=O)[nH]1 (racemic) [Comp 242] the “% inh. (percentage inhibition of IL-5 production)” value was 98%. For O=c1cnn(-c2cc(Cl)c(C(c3ccc(Cl)cc3)c3nc(-c4ccccc4)c(COC4CCCCC4)s3)c(Cl)c2)c(=O)[nH]1 (racemic) [Comp 310], the “% inh. (percentage inhibition of IL-5 production)” value was 79%. In the case of Cl.O.O=c1cnn(-c2cc(Cl)c(C(c3ccc(Cl)cc3)c3csc(-c4ccncc4)n3)c(Cl)c2)c(=O)[nH]1 (racemic) [Compound 366], the “% inh. (percentage inhibition of IL-5 production)” value is reported as 93%. With Nc1ccc(-c2nnc(C(c3ccc(Cl)cc3)c3c(Cl)cc(-n4ncc(=O)[nH]c4=O)cc3Cl)o2)cc1 (racemic) [Compound 184] the “% inh. (percentage inhibition of IL-5 production)” value was 83%. For O=c1cnn(-c2cc(Cl)c(C(c3ccc(Cl)cc3)c3nc(-c4cccc(F)c4)cs3)c(Cl)c2)c(=O)[nH]1 (single isomer, unassigned) [Comp 319], the “% inh. (percentage inhibition of IL-5 production)” value was 84%. In the case of CC(c1ccc(Cl)c(C(F)(F)F)c1)(c1nc(-c2ccccc2)cs1)c1c(Cl)cc(-n2ncc(=O)[nH]c2=O)cc1Cl (racemic) [Comp 23], the “% inh. (percentage inhibition of IL-5 production)” value is reported as 83%. With O=c1cnn(-c2ccc(C(Sc3nc4ccccc4s3)c3ccc(Cl)cc3)c(Cl)c2)c(=O)[nH]1 (racemic) [Compound 77] the “% inh. (percentage inhibition of IL-5 production)” value was 65%. For O=c1cnn(-c2cc(Cl)c(C(SC3=NCCS3)c3ccc(Cl)c(C(F)(F)F)c3)c(Cl)c2)c(=O)[nH]1 (stereo not drawn) [Compound 386], the “% inh. (percentage inhibition of IL-5 production)” value was 97%. With O=c1cnn(-c2cc(Cl)c(C(Sc3ncccn3)c3ccc(Cl)c(C(F)(F)F)c3)c(Cl)c2)c(=O)[nH]1 (racemic) [Compound 341] the “% inh. (percentage inhibition of IL-5 production)” value was 96%. In the case of Cn1c(C(c2ccc(Cl)cc2)c2c(Cl)cc(-n3ncc(=O)[nH]c3=O)cc2Cl)cnc1-c1ccccc1 (stereo not drawn) [Comp 430], the “% inh. (percentage inhibition of IL-5 production)” value is reported as 89%. For COc1cc(C)nc(NC(c2ccc(Cl)cc2)c2ccc(-n3ncc(=O)[nH]c3=O)cc2Cl)n1 (racemic) [Compound 42], the “% inh. (percentage inhibition of IL-5 production)” value was 57%. For Cc1sc(C(c2ccc(Cl)cc2)c2c(Cl)cc(-n3ncc(=O)[nH]c3=O)cc2Cl)nc1-c1ccccc1F (racemic) [Comp 259], the “% inh. (percentage inhibition of IL-5 production)” value was 95%. With O=C(O)Cc1sc(C(c2ccc(Cl)cc2)c2c(Cl)cc(-n3ncc(=O)[nH]c3=O)cc2Cl)nc1-c1ccccc1 (racemic) [Comp 300] the “% inh. (percentage inhibition of IL-5 production)” value was 27%. For O=c1cnn(-c2cc(Cl)c(C(c3ccc(Cl)cc3)c3nc(-c4ccccc4)c(CNS(=O)(=O)Cc4ccccc4)s3)c(Cl)c2)c(=O)[nH]1 (racemic) [Comp 336], the “% inh. (percentage inhibition of IL-5 production)” value was 88%. In the case of O=c1cnn(-c2cc(Cl)c(C(c3ccc(Cl)c(C(F)(F)F)c3)c3nc(-c4ccccc4Cl)cs3)c(Cl)c2)c(=O)[nH]1 (racemic) [Comp 254], the “% inh. (percentage inhibition of IL-5 production)” value is reported as 86%. In the case of COc1ccc(-c2ccnc(SC(c3ccc(Cl)cc3)c3ccc(-n4ncc(=O)[nH]c4=O)cc3Cl)n2)cc1 (racemic) [Compound 79], the “% inh. (percentage inhibition of IL-5 production)” value is reported as 74%. For Cc1ccsc1-c1nnc(C(c2ccc(Cl)cc2)c2c(Cl)cc(-n3ncc(=O)[nH]c3=O)cc2Cl)o1 (racemic) [Compound 203], the “% inh. (percentage inhibition of IL-5 production)” value was 82%. In the case of O=c1cnn(-c2cc(Cl)c(C(Sc3nc(-c4ccc(F)cc4F)cs3)c3ccc(Cl)c(C(F)(F)F)c3)c(Cl)c2)c(=O)[nH]1 (stereo not drawn) [Compound 397], the “% inh. (percentage inhibition of IL-5 production)” value is reported as 83%. In the case of O=c1cnn(-c2ccc(C(c3ccc(Cl)cc3)c3noc(-c4ccccc4)n3)c(Cl)c2)c(=O)[nH]1 (racemic) [Comp 107], the “% inh. (percentage inhibition of IL-5 production)” value is reported as 81%. In the case of Cc1nnc(C(c2ccc(Cl)cc2)c2c(Cl)cc(-n3ncc(=O)[nH]c3=O)cc2Cl)o1 (racemic) [Compound 162], the “% inh. (percentage inhibition of IL-5 production)” value is reported as 63%. For O=c1cnn(-c2cc(Cl)c(C(c3ccc(Cl)cc3)c3sc(-c4ccccc4Cl)nc3-c3ccccc3Cl)c(Cl)c2)c(=O)[nH]1 (racemic) [Compound 147], the “% inh. (percentage inhibition of IL-5 production)” value was 50%. With CCOC(=O)N1CCC(NC(=S)Nc2cccc(-c3nnc(C(c4ccc(Cl)cc4)c4c(Cl)cc(-n5ncc(=O)[nH]c5=O)cc4Cl)o3)c2)CC1 (racemic) [Compound 220] the “% inh. (percentage inhibition of IL-5 production)” value was 25%.

Same assay, conditions: test dose 1×10^−6 M, 48 hours, read-out: % inh. (percentage inhibition of IL-5 production)
O=C(CO)Nc1ccccc1-c1nnc(C(c2ccc(Cl)cc2)c2c(Cl)cc(-n3ncc(=O)[nH]c3=O)cc2Cl)o1 (racemic) [Compound 213, (±)-N-[2-[5-[(4-chlorophenyl)[2,6-dichloro-4-(4,5-dihydro-3,5-dioxo-1,2,4-triazin-2(3H)-yl)phenyl]methyl]-1,3,4-oxadiazol-2-yl]phenyl]-2-hydroxyacetamide] gave an inhibition at 1 µM of 32%. Work on O=c1cnn(-c2ccc(C(c3ccc(Cl)cc3)c3nc(-c4ccccc4)cs3)c(Cl)c2)c(=O)[nH]1 (racemic) [Compound 419, (±)-2-[3-chloro-4-[(4-chlorophenyl)(4-phenyl-2-thiazolyl)methyl]phenyl]-1,2,4-triazine-3,5(2H,4H)-dione] yielded an inhibition at 1 µM of 5%. Work on CN(C)C(=O)c1sc(C(c2ccc(Cl)cc2)c2c(Cl)cc(-n3ncc(=O)[nH]c3=O)cc2Cl)nc1-c1ccccc1 (racemic) [Compound 303, (±)-N,N-dimethyl-2-[(4-chlorophenyl)[2,6-dichloro-4-(4,5-dihydro-3,5-dioxo-1,2,4-triazin-2(3H)-yl)phenyl]methyl]-4-phenylthiazol-5-carboxamide] yielded an inhibition at 1 µM of 85%. O=c1cnn(-c2ccc(C(Sc3ncc[nH]3)c3ccc(Cl)cc3)c(Cl)c2)c(=O)[nH]1 (racemic) [Compound 94, (±)-2-[3-chloro-4-[(4-chlorophenyl)(1H-imidazol-2-ylthio)methyl]phenyl]-1,2,4-triazine-3,5(2H,4H)-dione] gave an inhibition at 1 µM of 18%. O=c1cnn(-c2cc(Cl)c(C(Sc3nccc(NCCO)n3)c3ccc(Cl)cc3)c(Cl)c2)c(=O)[nH]1 (racemic) [Compound 357, (±)-2-[3,5-dichloro-4-[(4-chlorophenyl)[[4-[(2-hydroxyethyl)amino]-2-pyrimidinyl]-thio]methyl]phenyl]-1,2,4-triazine-3,5(2H,4H)-dione] showed an inhibition at 1 µM of 69%. In the case of O=c1cnn(-c2ccc(C(Nc3nc4cccnc4s3)c3ccc(Cl)cc3)c(Cl)c2)c(=O)[nH]1 (racemic) [Compound 410, (±)-2-[3-chloro-4-[(4-chlorophenyl)[(thiazolo[5,4-b]pyridin-2-yl)amino]methyl]phenyl]-1,2,4-triazine-3,5(2H,4H)-dione], the inhibition at 1 µM is reported as 15%.

Test system: not given
Test: not given
Conditions: not given
With O=C(CO)Nc1ccccc1-c1nnc(C(c2ccc(Cl)cc2)c2c(Cl)cc(-n3ncc(=O)[nH]c3=O)cc2Cl)o1 (racemic) [Compound 213, (±)-N-[2-[5-[(4-chlorophenyl)[2,6-dichloro-4-(4,5-dihydro-3,5-dioxo-1,2,4-triazin-2(3H)-yl)phenyl]methyl]-1,3,4-oxadiazol-2-yl]phenyl]-2-hydroxyacetamide] the melting point was 235 °C. In the case of O=c1cnn(-c2ccc(C(c3ccc(Cl)cc3)c3nc(-c4ccccc4)cs3)c(Cl)c2)c(=O)[nH]1 (racemic) [Compound 419, (±)-2-[3-chloro-4-[(4-chlorophenyl)(4-phenyl-2-thiazolyl)methyl]phenyl]-1,2,4-triazine-3,5(2H,4H)-dione], the melting point is reported as 90 °C. Work on CN(C)C(=O)c1sc(C(c2ccc(Cl)cc2)c2c(Cl)cc(-n3ncc(=O)[nH]c3=O)cc2Cl)nc1-c1ccccc1 (racemic) [Compound 303, (±)-N,N-dimethyl-2-[(4-chlorophenyl)[2,6-dichloro-4-(4,5-dihydro-3,5-dioxo-1,2,4-triazin-2(3H)-yl)phenyl]methyl]-4-phenylthiazol-5-carboxamide] yielded a melting point of 150 °C.
